# Measurements reported in ChEMBL document CHEMBL1127157, “Synthesis and biological activity of 2-desamino and 4-deoxy analogs of 5,10-dideazatetrahydrofolic acid (DDATHF)” (Bioorg Med Chem Lett, 1993).
# Legend:
# [1] = molecular target: T1, Trifunctional purine biosynthetic protein adenosine-3 (Homo sapiens, UniProt P22102); assay: Tested for the inhibition of recombinant human monofunctional Glycinamide ribonucleotide formyltransferase
# T1 sequence (P22102 whole entry): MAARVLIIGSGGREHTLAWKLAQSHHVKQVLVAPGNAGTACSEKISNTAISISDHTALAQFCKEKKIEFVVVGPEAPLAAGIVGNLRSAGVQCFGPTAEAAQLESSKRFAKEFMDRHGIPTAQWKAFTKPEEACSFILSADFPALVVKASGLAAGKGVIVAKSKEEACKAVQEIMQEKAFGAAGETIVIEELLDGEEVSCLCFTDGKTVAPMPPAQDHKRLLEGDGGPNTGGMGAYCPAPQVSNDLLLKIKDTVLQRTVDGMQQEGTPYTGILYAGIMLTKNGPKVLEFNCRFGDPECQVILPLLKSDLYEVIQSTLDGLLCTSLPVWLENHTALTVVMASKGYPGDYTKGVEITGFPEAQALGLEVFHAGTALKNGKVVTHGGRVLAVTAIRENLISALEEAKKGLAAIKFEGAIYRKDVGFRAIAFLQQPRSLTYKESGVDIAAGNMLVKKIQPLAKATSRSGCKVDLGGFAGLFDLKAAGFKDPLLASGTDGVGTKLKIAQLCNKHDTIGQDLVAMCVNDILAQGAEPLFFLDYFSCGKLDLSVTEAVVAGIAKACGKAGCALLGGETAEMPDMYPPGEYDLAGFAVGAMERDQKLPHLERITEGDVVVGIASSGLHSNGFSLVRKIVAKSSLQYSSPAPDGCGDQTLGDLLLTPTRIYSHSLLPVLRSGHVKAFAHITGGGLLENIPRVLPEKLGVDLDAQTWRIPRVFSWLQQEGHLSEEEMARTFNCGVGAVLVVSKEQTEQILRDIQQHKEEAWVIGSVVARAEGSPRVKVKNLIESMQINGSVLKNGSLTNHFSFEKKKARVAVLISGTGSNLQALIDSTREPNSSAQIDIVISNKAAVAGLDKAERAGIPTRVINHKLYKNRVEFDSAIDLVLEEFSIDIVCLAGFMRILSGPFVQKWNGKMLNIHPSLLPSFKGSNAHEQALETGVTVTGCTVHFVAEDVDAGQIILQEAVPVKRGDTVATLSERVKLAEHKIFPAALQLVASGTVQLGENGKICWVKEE
# [2] = molecular target: T2, Trifunctional purine biosynthetic protein adenosine-3 (Mus musculus, UniProt Q64737); assay: Tested for the inhibition of trifunctional Glycinamide ribonucleotide formyltransferase isolated from murine L1210 cells.; type: functional
# T2 sequence (Q64737 whole entry): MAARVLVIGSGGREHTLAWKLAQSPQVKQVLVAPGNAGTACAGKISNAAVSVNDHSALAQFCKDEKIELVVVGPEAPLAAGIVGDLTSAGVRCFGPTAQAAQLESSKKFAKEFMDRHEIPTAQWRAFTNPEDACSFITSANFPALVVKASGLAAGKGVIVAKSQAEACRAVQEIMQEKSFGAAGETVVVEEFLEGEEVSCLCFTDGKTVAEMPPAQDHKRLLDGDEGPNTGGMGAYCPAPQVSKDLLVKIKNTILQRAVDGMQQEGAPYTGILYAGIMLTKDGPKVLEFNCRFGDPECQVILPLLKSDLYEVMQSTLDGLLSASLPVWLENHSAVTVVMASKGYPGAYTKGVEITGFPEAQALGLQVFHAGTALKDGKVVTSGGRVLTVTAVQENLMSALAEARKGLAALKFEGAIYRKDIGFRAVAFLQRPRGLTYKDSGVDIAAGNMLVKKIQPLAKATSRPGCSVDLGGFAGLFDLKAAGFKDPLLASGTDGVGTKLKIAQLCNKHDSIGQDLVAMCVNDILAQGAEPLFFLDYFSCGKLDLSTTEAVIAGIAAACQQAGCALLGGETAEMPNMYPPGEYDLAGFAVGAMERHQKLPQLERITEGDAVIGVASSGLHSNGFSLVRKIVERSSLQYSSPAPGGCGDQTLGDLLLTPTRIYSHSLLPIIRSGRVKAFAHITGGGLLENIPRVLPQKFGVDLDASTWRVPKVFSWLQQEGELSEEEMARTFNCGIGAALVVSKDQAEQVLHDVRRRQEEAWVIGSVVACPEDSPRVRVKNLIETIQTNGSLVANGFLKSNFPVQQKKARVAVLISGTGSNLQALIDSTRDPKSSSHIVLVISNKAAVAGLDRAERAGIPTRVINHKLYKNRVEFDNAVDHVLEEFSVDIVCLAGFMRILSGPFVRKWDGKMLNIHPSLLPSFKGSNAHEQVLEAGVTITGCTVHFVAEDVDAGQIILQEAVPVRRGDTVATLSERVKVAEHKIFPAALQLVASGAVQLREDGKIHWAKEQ
# CCRF-CEM = assay: Tested for the growth inhibition of CCRF-CEM, a human T-cell derived lymphoblastic leukemic cell line; type: functional, cell-based
Ki [2] [µM],SMILES,Ki [1] [µM],IC50 (CCRF-CEM) [ng/mL]
27,O=C(O)CC[C@H](NC(=O)c1ccc(CCC2CNc3ncnc(O)c3C2)cc1)C(=O)O (stereo partly specified),82.1,> 20000
0.12,Nc1nc2c(c(=O)[nH]1)C[C@@H](CCc1ccc(C(=O)N[C@@H](CCC(=O)O)C(=O)O)cc1)CN2 [LOMETREXOL],,
,Nc1ncc2c(n1)NCC(CCc1ccc(C(=O)N[C@@H](CCC(=O)O)C(=O)O)cc1)C2 (stereo partly specified),186,4
